# pIC50: −log10 of the molar value.
# Biological target: T1, Monoglyceride lipase (Rattus norvegicus, UniProt Q8R431)
# T1 sequence (Q8R431 whole entry): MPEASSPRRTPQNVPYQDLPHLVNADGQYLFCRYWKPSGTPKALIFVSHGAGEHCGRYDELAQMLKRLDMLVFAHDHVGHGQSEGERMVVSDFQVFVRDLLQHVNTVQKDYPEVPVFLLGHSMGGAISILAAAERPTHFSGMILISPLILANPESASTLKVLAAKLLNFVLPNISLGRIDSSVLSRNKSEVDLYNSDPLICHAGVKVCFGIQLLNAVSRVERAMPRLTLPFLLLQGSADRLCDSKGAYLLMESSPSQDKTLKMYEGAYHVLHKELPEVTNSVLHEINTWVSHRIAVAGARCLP
# Experiment: Enzyme Assay
# Settings: 37 °C
# Experimental: Purified recombinant rat MGL was prepared and enzyme activity was assayed.
row,Structure (SMILES),pIC50
1,C=c1c(O)c(O)cc2c1=CC=C1[C@@]2(C)CC[C@@]2(C)[C@@H]3C[C@](C)(C(=O)O)CC[C@]3(C)CC[C@]12C,5.80
2,Cc1c(O)c(O)cc2c1CC=C1[C@@]2(C)CC[C@@]2(C)C3C[C@](C)(C(=O)O)CC[C@]3(C)CC[C@]12C (stereo not given in full) [Dihydrocelastrol],4.82
3,CC(=O)Oc1cc2c(c(C)c1OC(C)=O)CC=C1[C@@]2(C)CC[C@@]2(C)[C@@H]3C[C@](C)(C(=O)O)CC[C@]3(C)CC[C@]12C [Dihydrocelastryl diacetate],4.82
4,C=c1c(O)c(O)cc2c1=CC=C1[C@@]2(C)CC[C@@]2(C)C3C[C@](C)(C(=O)OC)CC[C@]3(C)CC[C@]12C (stereo not given in full) [Pristimerin],7.03
5,COC(=O)[C@]1(C)CC[C@]2(C)CC[C@]3(C)C4=CCc5c(cc(O)c(O)c5C)[C@]4(C)CC[C@@]3(C)C2C1 (stereo not given in full) [Pristimerol],5.40

# Source: BindingDB's records for doi:10.1016/j.chembiol.2009.09.012 (University of California Irvine, 2009)
